Data set [1] deals with cyclooxygenase-2 (Cox-2) in human bladder cancer HT1376 cells. Put plainly: Western blot analysis of Cox-2 in HT1376 cells. Type of data set: cell-based. The settings on record: 24 h, cells overexpressing Cox-2. As for the experimental part: FIG. 5. The effects of AITC and SF on cyclooxygenase-2 (Cox-2) expression in human bladder cancer cells. Human bladder cancer HT1376 cells that over express Cox-2 were treated with AITC or SF at the indicated concentrations for 24 h and then harvested for Western blot analysis of Cox-2. GAPDH is used as a loading control.

The test system of data set [2] is UM-UC-3 cells. Put plainly: Cell cycle arrest by flow cytometry, UM-UC-3 cells. The settings on record: 24 h. Type of data set: cell-based, human. As for the experimental part:
(§1) FIG. 3. The effect of AITC on cell survival and proliferation. AITC was evaluated at the indicated concentrations in human bladder cancer UM-UC-3 cells, rat bladder cancer AY-27 cells, and normal human bladder epithelial cells (HUC). A. Cell growth inhibition, measured by MTT assay, 72-h AITC treatment. IC50 was calculated from nonlinear regression curve fit. B. Cell cycle arrest (□, subG1; ? , G1; ? , 5; ▪, G2/M), measured by flow cytometry, 24 h AITC treatment. C. Apoptosis induction, measured by an ELISA assay, 24 h AITC treatment. Mean±SE, n=3-6), *P<0.05.
FIG. 4. Effect of AITC on mitosis, tubulin expression and apoptosis in human bladder cancer UM-UC-3 cells. Cells were treated with vehicle or AITC for 24 h (each numerical value is mean±SD). A. Flow cytometry analysis for cell cycle arrest. B. Wright-Giemsa staining for counting mitotic figures. Arrows point to cells in mitosis or mitotic catastrophe. C. Immunofluorescent staining of microtubules (green color) and DNA staining with DAPI (blue color). D. Western blotting of tubulins (GAPDH as a loading control). E. Loss of mitochondrial transmembrane potential (Δψm) measured by flow cytometry. […] G. Apoptotic cells (TUNEL cells) measured by flow cytometry. […]
FIG. 10. […] NAC-AITC was evaluated in both UM-UC-3 cells and AY-27 cells. […] (B) Cell growth and proliferation, measured by 3-([…])-2,5-diphenyltetrazolium bromide assay, 72 h treatment with AITC or NAC-AITC at indicated concentrations. IC50 was calculated from the non-linear regression curve fit. (C) Apoptosis, measured by an enzyme-linked immunosorbent assay, 24 h NAC-AITC treatment at 15 µM. (D) Cell cycle (open bars, G1; shaded bars, S; closed bars, G2/M), measured by flow cytometry, 24 h NAC-AITC treatment at 15 μM. *P<, 0.005, compared with control.
The effect of NAC-AITC on cell cycle progression was measured by flow cytometry as described previously. […] Induction of apoptosis by NAC-AITC was measured using the Cell Death Detection ELISA^plus kit (Roche Diagnostics, Indianapolis, Ind.), following the manufacturer's instruction. […]
(Flow cytometry measures light scatter and fluorescence of single cells or particles in a stream.)

The subject of data set [3] is AY-27 cells. Put plainly: Cell cycle arrest by flow cytometry, AY-27 cells. Type of data set: cell-based, rat. To be noted: 24 h. As for the experimental part:
as §1
FIG. 10. The effect of NAC-AITC on cell survival and proliferation. NAC-AITC was evaluated in both UM-UC-3 cells and AY-27 cells. (A) Chemical structures of AITC and NAC-AITC. (B) Cell growth and proliferation, measured by 3-([…])-2,5-diphenyltetrazolium bromide assay, 72 h treatment with AITC or NAC-AITC at indicated concentrations. IC50 was calculated from the non-linear regression curve fit. (C) Apoptosis, measured by an enzyme-linked immunosorbent assay, 24 h NAC-AITC treatment at 15 µM. (D) Cell cycle (open bars, G1; shaded bars, S; closed bars, G2/M), measured by flow cytometry, 24 h NAC-AITC treatment at 15 μM. *P<, 0.005, compared with control.
The effect of NAC-AITC on cell cycle progression was measured by flow cytometry as described previously. Briefly, 1.5×10^6 AY-27 cells were grown in each 10-cm plate with 10 ml medium for 24 h and then treated with NAC-AITC or solvent for 24 h before analysis. Induction of apoptosis by NAC-AITC was measured using the Cell Death Detection ELISA^plus kit (Roche Diagnostics, Indianapolis, Ind.), following the manufacturer's instruction. […] At the end of treatment, the cells were treated with lysis buffer, and after a low-speed centrifugation, a portion of the supernatant fraction was used for spectroscopic measurement (expressed as A405-490 nm) of cytoplasmic levels of histone-associated mononucleosomes or oligonucleosomes by an enzyme-linked immunosorbent assay. […]

Data set [4] has as its system normal human bladder epithelial cells (HUC). Put plainly: Cell cycle arrest and apoptosis in HUC. Type of data set: cell-based. To be noted: 7.5 and/or 15 microM. As for the experimental part: as §1
The subject of data set [5] is α-tubulin, β-tubulin, γ-tubulin, caspase-9, caspase-3, VEGF in UM-UC-3 cells. Put plainly: Western blotting in UM-UC-3 cells (tubulins, caspases, VEGF). Type of data set: cell-based, human. To be noted: 24 h. As for the experimental part:
(§2) FIG. 4. Effect of AITC on mitosis, tubulin expression and apoptosis in human bladder cancer UM-UC-3 cells. Cells were treated with vehicle or AITC for 24 h (each numerical value is mean±SD). A. Flow cytometry analysis for cell cycle arrest. B. Wright-Giemsa staining for counting mitotic figures. Arrows point to cells in mitosis or mitotic catastrophe. C. Immunofluorescent staining of microtubules (green color) and DNA staining with DAPI (blue color). D. Western blotting of tubulins (GAPDH as a loading control). E. Loss of mitochondrial transmembrane potential (Δψm) measured by flow cytometry. F. Western blotting of caspase-9 and caspase-3 (GAPDH as a loading control). G. Apoptotic cells (TUNEL cells) measured by flow cytometry. Cells in F and G were co-treated with or without 20 microM Z-LEHD-FMK (a caspase-9 inhibitor).
FIG. 8. Inhibition of bladder cancer development by MSP-1. Female F344 rats were inoculated with AY-27 cells intravesically via a urethra catheter to initiate development of orthotopic bladder cancer. Oral administration of MSP-1 of vehicle (water) once daily was started 1 day after cancer cell inoculation and ended 3 weeks later. The number of rats per group varied from 11-29. A. Initial (□) and final (▪) body weights. B. Tumor weight was calculated by subtracting the average normal bladder weight from tumor-bearing bladder weight. *P<0.05. Each value in A and B is mean±SEM. C. Percentage of bladder where the tumor invaded the muscle tissue. D. The effects of MSP-1 on selected anticancer targets in UM-UC-3 cells (in vitro), AY-27 cells (in vitro) and AY-27 tumors (in vivo). The cells were treated with MSP-1 at the sinigrin concentrations of 13 and 26 microM for 24 h. The bladder tumors were removed from rats treated with MSP-1 at the sinigrin doses of 9 or 90 micromols/kg once daily for 3 weeks, started 1 day after cancer cell inoculation. Cell lysates and tumor homogenates were analyzed by Western blotting, using GAPDH as a loading control.
Western blot analysis. […]
For orientation: Immunoblotting shows a protein as a band on a membrane.

In data set [6] the test system is UM-UC-3 cells. Put plainly: Wright-Giemsa staining for mitotic figures, UM-UC-3 cells. Type of data set: cell-based, human. The settings on record: 24 h, compared with G2/M by flow cytometry. The procedure: as §2
Data set [7] concerns normal human bladder epithelial cells (HUC). The experiment in a line: MTT cell growth assay, normal bladder epithelial cells. Type of data set: cell-based. To be noted: 72-h treatment. The procedure: as §1
For orientation: Formazan colour is commonly taken as a measure of viable cells.

A short description of data set [8]: Storage stability at room temperature. The format is physicochemical. To be noted: data not shown.
[9] abbreviates: AITC 7.5-15 microM, control 9.9-11.5%.

As to `C=CCN=C=S` [AITC, allyl isothiocyanate], the “effect on Cox-2 expression” value in data set [1] is “not detectable”. In addition, the “cells in G2/M phase” value in data set [2] (setting [9]) was “up to 72%”; in data set [3] (setting [9]) it was at most 49%. Besides, the “increase in subG1 population” value in data set [2] (AITC) is listed as “up to 6.5 fold”; in data set [3] (AITC), at most 7.8 fold. Besides, in data set [4], the “cell cycle arrest and apoptosis in HUC” value is “failed to cause cell cycle arrest and apoptosis”. Besides, the “caspase-9 and caspase-3 activation” value in data set [5] is “activation of both caspase-9 and caspase-3”. Moreover, in data set [5], the “α-tubulin and β-tubulin levels” value is “significantly down regulated”. For the same molecule, the arrest in mitosis entry in data set [6] is “arrested cells almost exclusively in mitosis”. In addition, inhibition in data set [7] was half-maximal at 69.4 µM (IC50).

Take `C=CCNC(=S)SC[C@H](NC(C)=O)C(=O)O` [NAC-AITC, N-acetyl-S—(N-allylthiocarbamoyl)cysteine]: the “cells in G2/M phase” value in data set [2] (NAC-AITC 15 µM, control 11-12%) is listed as 55%; in data set [3] (NAC-AITC 15 µM, control 11-12%), 45%. Moreover, in data set [8], the “stability when kept dry” value is on record as “at least 16 months”.

The term IC50 denotes the concentration at which inhibition is half-maximal. Low values mean higher potency, high ones lower potency.

These data come from patent US9486434B2, “Method for delivery and use of isothiocyanates for prophylaxis and/or therapy of bladder cancer” (Health Research Inc., priority 2010, dated 2016).
